Data as given in patent publication US11708368B2, “Crystal form of ethyl (S)-3-(8-bromo-1-methyl-6-(pyridin-2-yl)-4H-benzo[f]imidazo[1,2-a][1,4]diazepin-4-yl)propanoate hydrochloride” (JIANGSU NHWALUOKANG PHARMACEUTICAL RESEARCH AND DEVELOPMENT …, priority 2018, dated 2023).

Legend:
[1] = Accelerated stability test (40° C., RH75%), change in degradation product CNS-7054; assay type: physicochemical; conditions: for Change in CNS-7054, Accelerated experiment (40° C., RH75%): 6 months, after packaging, degradation product CNS-7054; for CNS-7054 increase, accelerated experiment (40° C., RH75%): in 1 month, sulfonate of the benzodiazepine derivative
Protocol: (§1) The compound of Formula I prepared in the above examples were selected, and placed under the conditions of 40° C., RH75% and 25° C., RH60% for an accelerated stability test and a long-term stability test after packaging. The changes in the degradation product (CNS-7054) in these compounds in 6 months were observed, and the results are shown in Table 13 below.
(§2) In addition, a lyophilized preparation made of sulfonates according to the prior art were partially degraded into carboxylic acid (CNS-7054) and released alcohol in both the accelerated and long-term experiments.

[2] = Long-term stability test (25° C., RH60%), change in degradation product CNS-7054; assay type: physicochemical; conditions: for Change in CNS-7054, Long-term experiment (25° C., RH60%): 6 months, after packaging, degradation product CNS-7054; for CNS-7054 increase, long-term experiment (25° C., RH60%): in 3 months, sulfonate of the benzodiazepine derivative
Protocol: as §1, §2

KM mice [3] = test: 2*ED50 anesthesia pharmacodynamics experiment in KM mice (induction time, duration, walking time); assay type: in vivo; conditions: n=20, dosage 2*ED50, tail vein injection in 5 seconds
Protocol: KM mice, half male and half female, 20 mice in each group. […] The time of loss of the righting reflex in mice (induction time), recovery time (duration) and walking time were recorded.

patients = conditions: Phase II clinical trial of ICU sedation; cited from earlier work
KM mice [4] = test: LD50 in KM mice by sequential method (death); assay type: in vivo; conditions: for TI (therapeutic index): KM mice, calculated through LD50 and ED50 values; for LD50 (95% confidence interval): male KM mice, tail vein injection in 5 seconds, death, sequential method
Protocol: (§3) Sequential method was used to determine the hypnotic ED50 and LD50 in KM mice for the hydrochloride of the benzodiazepine derivative. Healthy and qualified male KM mice were selected, n=10−20. The drug was injected through the tail vein at a constant rate in 5 seconds. After preliminary pre-test, the approximate dosage that may cause hypnosis (or death) of the animals was found as an intermediate dosage in the formal experiment. A group interval of 0.8 was used, and 2-3 dosage groups were set up and down respectively. The formal experiment started with the administration from the intermediate dosage. When the animal was narcotized (or died), the dosage was reduced by one dose. If the animal was not narcotized (or died), the dosage was increased by one until 3-4 repetitions occurred. The ED50 value and LD50 value were measured with the disappearance of righting reflex or death as indicators. The therapeutic index (TI index=[…]) was calculated through LD50 and ED50 values.

KM mice [5] = test: Hypnotic ED50 in KM mice by sequential method (disappearance of righting reflex); assay type: in vivo; conditions: male KM mice, tail vein injection in 5 seconds
Protocol: as §3

## CCOC(=O)CCC1N=C(c2ccccn2)c2cc(Br)ccc2-n2c(C)cnc21.Cl (stereo not shown) [Ethyl, 4% valine]
[1]
  Change in CNS-7054, Accelerated experiment (40° C., RH75%): Increased by 0.01%

## CCOC(=O)CCC1N=C(c2ccccn2)c2cc(Br)ccc2-n2c(C)cnc21.Cl (stereo not shown) [Ethyl, 2.8% glycine]
[2]
  Change in CNS-7054, Long-term experiment (25° C., RH60%): Not increased
[1]
  Change in CNS-7054, Accelerated experiment (40° C., RH75%): Not increased

## COC(=O)CCC1N=C(c2ccccn2)c2cc(Br)ccc2-n2c(C)cnc21.Cc1ccc(S(=O)(=O)O)cc1 (stereo not shown)
[2]
  CNS-7054 increase, long-term experiment (25° C., RH60%): Increased by 0.1%
[1]
  CNS-7054 increase, accelerated experiment (40° C., RH75%): Increased by 0.1%

## COC(=O)CCC1N=C(c2ccccn2)c2cc(Br)ccc2-n2c(C)cnc21.O=S(=O)(O)c1ccccc1 (stereo not shown) [Positive control 1]
KM mice [3]
  Number of animals with duration time longer than 10 min: 9/20
  Number of animals with walking time longer than 1 min: 17/20
  Walking time: 514.95 ± 525.16 s
  duration time (recovery time): 692.3 ± 399.15 s
  induction time (time of loss of the righting reflex): 17.6 ± 1.93 s

## CCOC(=O)CCC1N=C(c2ccccn2)c2cc(Br)ccc2-n2c(C)cnc21.O=S(=O)(O)c1ccccc1 (stereo not shown) [Positive control 2]
KM mice [3]
  Number of animals with duration time longer than 10 min: 7/20
  Number of animals with walking time longer than 1 min: 10/20
  Walking time: 192.9 ± 268.98 s
  duration time (recovery time): 443.75 ± 247.86 s
  induction time (time of loss of the righting reflex): 17.1 ± 2.00 s

## COC(=O)CCC1N=C(c2ccccn2)c2cc(Br)ccc2-n2c(C)cnc21.Cl (stereo not shown) [Methyl, 4% glycine]
[2]
  Change in CNS-7054, Long-term experiment (25° C., RH60%): Not increased
[1]
  Change in CNS-7054, Accelerated experiment (40° C., RH75%): Increased by

## CCOC(=O)CCC1N=C(c2ccccn2)c2cc(Br)ccc2-n2c(C)cnc21.Cc1ccc(S(=O)(=O)O)cc1 (stereo not shown)
[2]
  CNS-7054 increase, long-term experiment (25° C., RH60%): Increased by 0.1%
[1]
  CNS-7054 increase, accelerated experiment (40° C., RH75%): Increased by 0.2%

## COC(=O)CCC1N=C(c2ccccn2)c2cc(Br)ccc2-n2c(C)cnc21.Cl (stereo not shown) [Methyl, 5% alanine]
[2]
  Change in CNS-7054, Long-term experiment (25° C., RH60%): Not increased
[1]
  Change in CNS-7054, Accelerated experiment (40° C., RH75%): Increased by 0.01%

## CCOC(=O)CCC1N=C(c2ccccn2)c2cc(Br)ccc2-n2c(C)cnc21.O=S(=O)(O)c1ccccc1 (stereo not shown)
[2]
  CNS-7054 increase, long-term experiment (25° C., RH60%): Increased by 0.03%
[1]
  CNS-7054 increase, accelerated experiment (40° C., RH75%): Increased by 0.05%

## COC(=O)CC[C@@H]1N=C(c2ccccn2)c2cc(Br)ccc2-n2c(C)cnc21 [Remimazolam]
patients
  hemodynamics of the patients after receiving the drug: unstable
  patients with plasma concentration higher than the normal range: 10%

## CCOC(=O)CCC1N=C(c2ccccn2)c2cc(Br)ccc2-n2c(C)cnc21.Cl (stereo not shown) [Ethyl, None]
[2]
  Change in CNS-7054, Long-term experiment (25° C., RH60%): Not increased
[1]
  Change in CNS-7054, Accelerated experiment (40° C., RH75%): Not increased

## CCOC(=O)CCC1N=C(c2ccccn2)c2cc(Br)ccc2-n2c(C)cnc21.Cl (stereo not shown) [Ethyl, 4.5% glycine]
[2]
  Change in CNS-7054, Long-term experiment (25° C., RH60%): Not increased
[1]
  Change in CNS-7054, Accelerated experiment (40° C., RH75%): Not increased

## CCOC(=O)CCC1N=C(c2ccccn2)c2cc(Br)ccc2-n2c(C)cnc21.Cl (stereo not shown) [Ethyl, 4% alanine]
[2]
  Change in CNS-7054, Long-term experiment (25° C., RH60%): Not increased
[1]
  Change in CNS-7054, Accelerated experiment (40° C., RH75%): Increased by 0.01%

## COC(=O)CCC1N=C(c2ccccn2)c2cc(Br)ccc2-n2c(C)cnc21.Cl (stereo not shown) [Methyl, 2% glycine]
[2]
  Change in CNS-7054, Long-term experiment (25° C., RH60%): Not increased
[1]
  Change in CNS-7054, Accelerated experiment (40° C., RH75%): Not increased

## COC(=O)CCC1N=C(c2ccccn2)c2cc(Br)ccc2-n2c(C)cnc21.Cl (stereo not shown) [Methyl, None]
[1]
  Change in CNS-7054, Accelerated experiment (40° C., RH75%): Not increased

## COC(=O)CCC1N=C(c2ccccn2)c2cc(Br)ccc2-n2c(C)cnc21.Cl (stereo not shown) [Methyl, 3% glycine]
[2]
  Change in CNS-7054, Long-term experiment (25° C., RH60%): Not increased
[1]
  Change in CNS-7054, Accelerated experiment (40° C., RH75%): Not increased

## COC(=O)CCC1N=C(c2ccccn2)c2cc(Br)ccc2-n2c(C)cnc21.O=S(=O)(O)c1ccccc1 (stereo not shown) [positive control 1]
KM mice [4]
  TI (therapeutic index): 6.6
  LD50 (95% confidence interval): 270.09 mg/kg
KM mice [5]
  ED50 (95% confidence interval): 40.64 mg/kg

## CCOC(=O)CCC1N=C(c2ccccn2)c2cc(Br)ccc2-n2c(C)cnc21.Cl (stereo not shown) [Ethyl, 5% alanine]
[2]
  Change in CNS-7054, Long-term experiment (25° C., RH60%): Not increased
[1]
  Change in CNS-7054, Accelerated experiment (40° C., RH75%): Increased by 0.01%

## CCOC(=O)CCC1N=C(c2ccccn2)c2cc(Br)ccc2-n2c(C)cnc21.O=S(=O)(O)c1ccccc1 (stereo not shown) [positive control 2]
KM mice [4]
  TI (therapeutic index): 16.8
  LD50 (95% confidence interval): 263.14 mg/kg
KM mice [5]
  ED50 (95% confidence interval): 15.62 mg/kg

## CCOC(=O)CC[C@@H]1N=C(c2ccccn2)c2cc(Br)ccc2-n2c(C)cnc21.Cl [R is ethyl, hydrochloride, ethyl (S)-3-(8-bromo-1-methyl-6-(pyridin-2-yl)-4H-benzo[f]imidazo[1,2-a][1,4]diazepin-4-yl)propanoate hydrochloride]
KM mice [3]
  incidence of the animal anesthesia time of more than 10 minutes: 20%
  incidence of the animal walking time of more than 1 min: 15%

## CCOC(=O)CCC1N=C(c2ccccn2)c2cc(Br)ccc2-n2c(C)cnc21.Cl (stereo not shown) [Ethyl, 1.7% glycine]
[2]
  Change in CNS-7054, Long-term experiment (25° C., RH60%): Not increased
[1]
  Change in CNS-7054, Accelerated experiment (40° C., RH75%): Not increased

## COC(=O)CCC1N=C(c2ccccn2)c2cc(Br)ccc2-n2c(C)cnc21.Cl (stereo not shown) [Methyl, 4% valine]
[2]
  Change in CNS-7054, Long-term experiment (25° C., RH60%): Not increased
[1]
  Change in CNS-7054, Accelerated experiment (40° C., RH75%): Increased by 0.01%

## COC(=O)CC[C@@H]1N=C(c2ccccn2)c2cc(Br)ccc2-n2c(C)cnc21.O=S(=O)(O)c1ccccc1
[2]
  CNS-7054 increase, long-term experiment (25° C., RH60%): Increased by 0.04%
[1]
  CNS-7054 increase, accelerated experiment (40° C., RH75%): Increased by 0.07%
